Source: article PMC12017303 (Science Advances, 2025)
Converted amounts (≈) assume the structure as drawn.

Tests used:
[1] = system: SARS-CoV-2 BA.2.86.1 replicon in Vero ACE2 TMPRSS2; assay: microbe, parasite or virus in culture; assay type: cell-based; conditions: Severe acute respiratory syndrome coronavirus 2, Vero, read-out: Replicon replication in Vero ACE2 TMPRSS2 EC50: BA.2.86.1
[2] = system: SARS-CoV-2 XBB.1.16 in A549-ACE2^h; assay: microbe, parasite or virus in culture; assay type: cell-based; conditions: Severe acute respiratory syndrome coronavirus 2, read-out: Viral replication in A549-ACE2^h EC50: XBB.1.16
in vitro [3] = conditions: mouse, microsomes, pH 7.4
HCoV Beta OC43 = assay: microbe, parasite or virus in culture; assay type: cell-based; conditions: Betacoronavirus 1, OC43
in vitro [4] = conditions: plasma
[5] = mouse, pH 7.4
in vivo [6] = conditions: male, CD-1, mouse; for AUC(0-t): AUClast; for Vd: Vss
[7] = assay type: physicochemical; conditions: 10 μM
SARS-CoV-2 M^Pro = SARS-CoV-2 M^Pro (Severe acute respiratory syndrome coronavirus 2, UniProt P0DTD1); assay type: biochemical
[8] = male, CD-1, mouse, in vivo; for AUClast / Plasma T½: po, 50 mg/kg
physchem = conditions: pH 7.4, aqueous buffer, kinetic from dmso stock
[9] = system: SARS-CoV-2 BA.2 (omicron); assay: microbe, parasite or virus in culture; assay type: cell-based; conditions: Severe acute respiratory syndrome coronavirus 2, Vero C1008
[10] = system: human cytochrome P450 (CYP) isoforms
SARS-CoV Urbani = assay: microbe, parasite or virus in culture; assay type: cell-based; conditions: Severe acute respiratory syndrome coronavirus, Vero C1008
[11] = target: SARS-CoV-2 M^Pro (Cys^145) (Severe acute respiratory syndrome coronavirus 2, UniProt P0DTD1); assay type: binding
[12] = system: SARS-CoV-2 WA.1 (icSARS-CoV-2-mNG) in A549-ACE2^h; assay: microbe, parasite or virus in culture; assay type: cell-based; conditions: for EC50: Severe acute respiratory syndrome coronavirus 2, read-out: Viral replication in A549-ACE2^h EC50: WA.1
[13] = human, pH 7.4
[14] = system: SARS-CoV-2 EG.5.1 in A549-ACE2^h; assay: microbe, parasite or virus in culture; assay type: cell-based; conditions: Severe acute respiratory syndrome coronavirus 2, read-out: Viral replication in A549-ACE2^h EC50: EG.5.1
MERS-CoV EMC = assay: microbe, parasite or virus in culture; assay type: cell-based; conditions: Middle East respiratory syndrome-related coronavirus, Vero C1008
[15] = system: panel of 40 receptors, ion channels (including the hERG channel), and serine and cysteine proteases
P-gp (MDR1) = assay: in vitro; conditions: dog; for Papp B→A: MDCK-MDR1; for Papp A→B: MDCK-MDR1, MDCK AB
HCoV Alpha 229E = assay: organism not typed; assay type: cell-based, HCoV 229E; conditions: Huh-7
[16] = system: SARS-CoV-2 XBB.1.5 in A549-ACE2^h; assay: microbe, parasite or virus in culture; assay type: cell-based; conditions: Severe acute respiratory syndrome coronavirus 2, read-out: Viral replication in A549-ACE2^h EC50: XBB.1.5
[17] = system: SARS-CoV-2 WA.1 replicon in Vero ACE2 TMPRSS2; assay: microbe, parasite or virus in culture; assay type: cell-based; conditions: Severe acute respiratory syndrome coronavirus 2, Vero, read-out: Replicon replication in Vero ACE2 TMPRSS2 EC50: WA.1
SARS-CoV-1 M^Pro = SARS-CoV-1 M^Pro (Severe acute respiratory syndrome coronavirus, UniProt P0C6X7); assay: biochemical
HAPLN1 = HAPLN1 (Homo sapiens, UniProt P10915); assay type: binding
in vitro [18] = conditions: African green monkey
CYP2C8 = CYP2C8 (Homo sapiens, UniProt P10632); conditions: human, pH 7.4
[19] = system: SARS-CoV-2 mNeon WA1 in A549-ACE2^h; assay type: cell-based
in vivo [20] = conditions: mouse
in vitro [21] = conditions: human
in vitro [22] = conditions: PAMPA, pH 7.4
[23] = system: SARS-CoV-2 mNeon XBB.1.16 in A549-ACE2^h; assay type: cell-based
in vitro [24] = conditions: human, microsomes, pH 7.4
[25] = pH 7.4, plasma protein binding (PPB)

Chain of HAPLN1 (P10915 16-354): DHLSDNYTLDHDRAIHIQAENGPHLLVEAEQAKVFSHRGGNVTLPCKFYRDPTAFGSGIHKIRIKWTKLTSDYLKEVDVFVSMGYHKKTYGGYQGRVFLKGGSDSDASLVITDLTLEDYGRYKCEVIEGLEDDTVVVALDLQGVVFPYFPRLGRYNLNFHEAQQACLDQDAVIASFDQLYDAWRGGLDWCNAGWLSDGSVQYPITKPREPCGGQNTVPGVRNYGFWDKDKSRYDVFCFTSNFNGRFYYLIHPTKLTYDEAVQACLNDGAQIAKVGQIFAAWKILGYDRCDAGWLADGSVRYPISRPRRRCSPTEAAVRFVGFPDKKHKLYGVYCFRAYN
Chain of CYP2C8 (P10632 whole entry): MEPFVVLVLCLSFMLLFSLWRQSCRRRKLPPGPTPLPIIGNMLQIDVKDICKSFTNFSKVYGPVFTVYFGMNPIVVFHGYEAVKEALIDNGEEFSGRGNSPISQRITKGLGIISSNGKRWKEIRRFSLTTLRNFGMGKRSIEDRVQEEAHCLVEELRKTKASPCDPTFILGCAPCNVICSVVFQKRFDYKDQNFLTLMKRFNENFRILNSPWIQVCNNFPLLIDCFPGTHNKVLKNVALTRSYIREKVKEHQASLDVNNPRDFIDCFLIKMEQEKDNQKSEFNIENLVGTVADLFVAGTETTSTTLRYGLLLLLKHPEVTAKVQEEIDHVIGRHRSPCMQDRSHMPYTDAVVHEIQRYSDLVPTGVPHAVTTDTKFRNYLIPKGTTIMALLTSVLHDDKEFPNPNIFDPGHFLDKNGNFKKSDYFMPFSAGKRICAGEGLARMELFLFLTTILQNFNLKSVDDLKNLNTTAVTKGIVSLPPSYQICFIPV

**Q.** For C#CCn1c(-c2ccc(Cl)c(Cl)c2)c(-n2nnc3cc(F)c(F)cc32)c(=O)n(-c2cncc3ccccc23)c1=O [AVI-4694], which EC50 [1] is on record?
**A.** Its EC50 is 12 nM.

**Q.** What about the EC50 [2] of the same molecule?
**A.** Its EC50 is 0.32 nM.

**Q.** What about the half-life (in vitro [3]) of the same molecule?
**A.** Its half-life is 1.6 h.

**Q.** And the EC50 (HCoV Beta OC43)?
**A.** The EC50 was 55 nM.

**Q.** What about the EC90 (HCoV Beta OC43) of the same molecule?
**A.** Its EC90 is 61 nM.

**Q.** What about the fraction unbound (in vitro [4]; pH 7.4, PPB) of the same molecule?
**A.** Its fraction unbound is 0.003.

**Q.** And the fraction unbound (in vitro [4]; [25])?
**A.** The fraction unbound was under 0.01.

**Q.** What about the “MLM T1/2” value [5] of the same molecule?
**A.** Its value is over 2 h.

**Q.** What about the bioavailability (in vivo [6]; F) of the same molecule?
**A.** Its bioavailability is 63.5%.

**Q.** And the MRT inf (in vivo [6]; iv, 10 mg/kg)?
**A.** The MRT inf was 2.6 h.

**Q.** And the clearance (in vivo [6]; iv, 10 mg/kg)?
**A.** The clearance was 9.37 mL/min/kg.

**Q.** What about the half-life (in vivo [6]; iv, 10 mg/kg) of the same molecule?
**A.** The half-life was 1.72 h.

**Q.** What about the AUC(0-inf) (in vivo [6]; iv, 10 mg/kg, AUCINF) of the same molecule?
**A.** The AUC(0-inf) was 17800 ng·h/mL.

**Q.** And the AUC(0-t) (in vivo [6]; iv, 10 mg/kg)?
**A.** The AUC(0-t) was 17300 ng·h/mL.

**Q.** And the Vd (in vivo [6]; iv, 10 mg/kg)?
**A.** The Vd was 1.46 L/kg.

**Q.** What about the half-life (in vivo [6]; po, 50 mg/kg) of the same molecule?
**A.** The half-life was 1.87 h.

**Q.** What about the AUC(0-inf) (in vivo [6]; po, 50 mg/kg, AUCINF) of the same molecule?
**A.** The AUC(0-inf) was 56500 ng·h/mL.

**Q.** What about the AUC(0-inf) (in vivo [6]; po, 50 mg/kg, AUCinf) of the same molecule?
**A.** The AUC(0-inf) was 56500 ng·h/mL.

**Q.** And the AUC(0-t) (in vivo [6]; po, 50 mg/kg)?
**A.** Its AUC(0-t) is 56500 ng·h/mL.

**Q.** And the Cmax (in vivo [6]; po, 50 mg/kg, CMax)?
**A.** Its Cmax is 5770 ng/mL.

**Q.** And the Cmax (in vivo [6]; po, 50 mg/kg, Cmax)?
**A.** Its Cmax is 5770 ng/mL.

**Q.** And the Tmax (in vivo [6]; po, 50 mg/kg, TMax)?
**A.** Its Tmax is 4 h.

**Q.** What about the Tmax (in vivo [6]; po, 50 mg/kg, Tmax) of the same molecule?
**A.** Its Tmax is 4 h.

**Q.** What about the “particle formation by dynamic light scattering (DLS)” value [7] of the same molecule?
**A.** The value was “formed particles”.

**Q.** And the “M^Pro activity after dialysis” value (SARS-CoV-2 M^Pro)?
**A.** Its value is “activity was not regained”.

**Q.** And the “Mouse F” value [8]?
**A.** The value was 64.

**Q.** And the AUClast [8]?
**A.** The AUClast was 56500 ng·h/mL.

**Q.** And the “Plasma T½” value [8]?
**A.** The value was 1.87 h.

**Q.** What about the solubility (physchem) of the same molecule?
**A.** The solubility was 2.4 µM (≈ 1.38 µg/mL).

**Q.** What about the EC50 [9] of the same molecule?
**A.** Its EC50 is 50 nM.

**Q.** And the EC90 [9]?
**A.** The EC90 was 45 nM.

**Q.** What about the “inhibition of several CYP isoforms” value ([10]; 10 μM) of the same molecule?
**A.** Its value is over 50%.

**Q.** What about the EC50 (SARS-CoV Urbani) of the same molecule?
**A.** Its EC50 is 52 nM.

**Q.** What about the EC90 (SARS-CoV Urbani) of the same molecule?
**A.** Its EC90 is 91 nM.

**Q.** And the “covalent adduct by whole protein MS” value [11]?
**A.** The value was “mass shifts consistent with modification at a single site”.

**Q.** What about the EC50 [12] of the same molecule?
**A.** The EC50 was 71 nM.

**Q.** And the “HLM T1/2” value [13]?
**A.** Its value is over 2 h.

**Q.** What about the EC50 [14] of the same molecule?
**A.** The EC50 was 0.22 nM.

**Q.** And the EC50 (MERS-CoV EMC)?
**A.** Its EC50 is 45 nM.

**Q.** And the “off-target activity across panel, result in words” value [15]?
**A.** Its value is “low-micromolar inhibition of nine enzymes/receptors in the panel”.

**Q.** What about the Papp B→A (P-gp (MDR1)) of the same molecule?
**A.** Its Papp B→A is 13.8 ×10⁻⁶ cm/s.

**Q.** What about the Papp A→B (P-gp (MDR1)) of the same molecule?
**A.** The Papp A→B was 8.2 ×10⁻⁶ cm/s.

**Q.** And the EC50 (HCoV Alpha 229E)?
**A.** The EC50 was over 1600 nM.

**Q.** And the EC90 (HCoV Alpha 229E)?
**A.** Its EC90 is over 1600 nM.

**Q.** What about the EC50 [16] of the same molecule?
**A.** Its EC50 is 0.3 nM.

**Q.** And the EC50 [17]?
**A.** The EC50 was 13 nM.

**Q.** What about the IC50 (SARS-CoV-1 M^Pro) of the same molecule?
**A.** Its IC50 is 66 nM.

**Q.** Which results are given for C#CCn1c(C)c(-n2nnc3ccccc32)c(=O)n(-c2cncc3ccccc23)c1=O [AVI-4516]?
**A.** EC50 [1]: 130 nM; EC50 [2]: 34 nM; half-life (in vitro [3]): > 2 h; EC50 (HCoV Beta OC43): 590 nM; EC90 (HCoV Beta OC43): 520 nM; fraction unbound (in vitro [4]; pH 7.4, PPB): 0.37; fraction unbound (in vitro [4]; [25]): 0.39; increase in Tm of HAPLN1 (HAPLN1): 5.77 °C; bioavailability (in vivo [6]; F): 174%; MRT inf (in vivo [6]; iv, 10 mg/kg): 0.798 h; clearance (in vivo [6]; iv, 10 mg/kg): 29 mL/min/kg; half-life (in vivo [6]; iv, 10 mg/kg): 0.866 h; AUC(0-inf) (in vivo [6]; iv, 10 mg/kg, AUCINF): 5740 ng·h/mL; AUC(0-t) (in vivo [6]; iv, 10 mg/kg): 5730 ng·h/mL; Vd (in vivo [6]; iv, 10 mg/kg): 1.39 L/kg; bioavailability (in vivo [6]; oral bioavailability (%F)): > 100%; half-life (in vivo [6]; po, 50 mg/kg): 4.7 h; AUC(0-inf) (in vivo [6]; po, 50 mg/kg, AUCINF): 69500 ng·h/mL; AUC(0-inf) (in vivo [6]; po, 50 mg/kg, AUCinf): 69500 ng·h/mL; AUC(0-t) (in vivo [6]; po, 50 mg/kg): 49900 ng·h/mL; Cmax (in vivo [6]; po, 50 mg/kg, CMax): 10100 ng/mL; Cmax (in vivo [6]; po, 50 mg/kg, Cmax): 10100 ng/mL; Tmax (in vivo [6]; po, 50 mg/kg, TMax): 1 h; Tmax (in vivo [6]; po, 50 mg/kg, Tmax): 1 h; CC50 (in vitro [18]): > 100000 nM; M^Pro activity after dialysis (SARS-CoV-2 M^Pro): activity was not regained; CYP2C8 inhibition (CYP2C8): ~ 45%; Mouse F [8]: 57; free concentration in plasma [8]: 2615 nM; AUClast [8]: 49900 ng·h/mL; Plasma T½ [8]: 4.7 h; solubility (physchem): 347 µM (≈ 142 µg/mL); EC50 [9]: 180 nM; EC90 [9]: 390 nM; inhibition across the CYP panel ([10]; human, pH 7.4): ≤ 25%; synergy with molnupiravir (ZIP analysis) [19]: a minor effect was observed in the direction of positive synergy; Kp (in vivo [20]): ~0.05; EC50 (SARS-CoV Urbani): 570 nM; EC90 (SARS-CoV Urbani): 1000 nM; covalent adduct by whole protein MS [11]: single modification consistent with the mass of AVI-4516; CC50 (in vitro [21]): > 100000 nM; viability at 100 µM (in vitro [21]): 90.4%; EC50 [12]: 38 nM; EC90 ([12]; Severe acute respiratory syndrome coronavirus 2, read-out: cellular 90% effective concentration (EC90)): 97 nM; Papp (in vitro [22]): 22.4 ×10⁻⁶ cm/s; EC50 [14]: 37 nM; EC50 (MERS-CoV EMC): < 32 nM; synergy with molnupiravir (ZIP analysis) [23]: synergy was observed at several concentrations; half-life (in vitro [24]): > 2 h; off-target activity across panel, result in words [15]: no substantial inhibition or interference with any of the off-targets; Papp B→A (P-gp (MDR1)): 45.2 ×10⁻⁶ cm/s; Papp A→B (P-gp (MDR1)): 13.3 ×10⁻⁶ cm/s; EC50 (HCoV Alpha 229E): 2900 nM; EC90 (HCoV Alpha 229E): 3500 nM; EC50 [16]: 30 nM; EC50 [17]: 160 nM; IC50 (SARS-CoV-1 M^Pro): 55 nM
